# Data taken from US20050267055A1, “Agent for improvement of glucose tolerance” (USE-TECHNO CORPORATION, priority 2003, published 2005).
# Experiment: Glucose tolerance test in a dog after corosolic acid administration
# Format: in vivo
# Conditions: dog (beagle), 20 mg/kg of body weight corosolic acid single administration; 75 g grape sugar oral load; tests up to 28 days after administration vs 60 days before
# Description: (Glucose Tolerance Improving Effect of Corosolic Acid Administration in a Dog)
# A dog (beagle) was used as the test animal. 20 mg/kg of body weight of purified corosolic acid extracted from banaba leaves was administered to the animal, and the glucose tolerance improvement effect was evaluated.
# The glucose tolerance was evaluated by performing glucose tolerance tests according to the procedure described in (1)-(3) below. A glucose tolerance test was performed 60 days before corosolic acid administration, immediately after corosolic acid administration, and at 7 days, 14 days, 21 days and 28 days after corosolic acid administration. At time points other than immediately after corosolic acid administration, the glucose tolerance test was performed immediately after the same dose of D-sorbitol was orally administered as a placebo instead of corosolic acid. • (1) 75 g of grape sugar is administered orally to the dog. • (2) Blood is collected from the dog's vein at 0 minute, 30 minutes, 60 minutes, 90 minutes, 120 minutes, 180 minutes and 240 minutes after grape sugar administration, and the blood glucose level of the collected blood is measured using GLUTEST SENSOR (trade name, manufactured by SANWA KAKAGU KENKYUSHO CO.,LTD). • (3) The total of 7 blood glucose levels measured above in (2) is represented by ΣBG [mg/dl].
smiles,measurement,value
C[C@H]1[C@H](C)CC[C@]2(C(=O)O)CC[C@]3(C)C(=CC[C@@H]4[C@@]5(C)C[C@@H](O)[C@H](O)C(C)(C)[C@@H]5CC[C@]43C)[C@H]12 [corosolic acid],ΣBG (total of 7 blood glucose levels in glucose tolerance test),lower values for 28 days after corosolic acid adminisration than before corosolic acid adminisration
